Assay results as given in US9855230B2 (ViiV Healthcare UK (No. 5) Limited, priority 2014, dated 2018).
Where a name gives a salt, the structure may show the parent alone. Read-outs that look alike come from different tables or passages of the source.

Legend:
[1] = tested on: recombinant NL4-3 virus (nef section replaced with Renilla luciferase gene) in MT-2 cells; assay: whole plant or invertebrate; format: cell-based, HIV; details: NL43, luciferase activity in MT-2 cells infected 4-5 days with recombinant NL4-3 virus
Text: A recombinant NL4-3 proviral clone, in which a section of the nef gene was replaced with the Renilla luciferase gene, was used to make the reference virus used in these studies.
Supernatent was harvested after 2-3 days and the amount of virus present was titered in MT-2 cells using luciferase enzyme activity as a marker by measuring luciferase enzyme activity. Luciferase was quantitated using the EnduRen Live Cell Substrate from Promega (Madison, Wis.). Antiviral activities of compounds toward the recombinant virus were quantified by measuring luciferase activity in MT-2 cells infected for 4-5 days with the recombinant virus in the presence of serial dilutions of the compound.

[2] = Compound cytotoxicity (CC50), XTT-based colorimetric assay; format: cell-based; details: human; uninfected MT2 cells, day 4, XTT assay
Procedure: Compound cytotoxicity and the corresponding CC50 values were determined using the same protocol as described in the antiviral assay except that uninfected cells were used. Cytotoxicity was assessed on day 4 in uninfected MT2 cells by using a XTT (2,3-bis[2-Methoxy-4-nitro-5-sulfophenyl]-2H-tetrazolium-5-carboxyanilide inner salt)-based colorimetric assay (Sigma-Aldrich, St Louis, Mo.).

SMILES	EC50 ([1]; read-out: Activity) [nM]	EC50 ([1]; read-out: EC50) [nM]	CC50 at 4 day [2] [nM]
COc1ccc(-n2ccnc2C(Cc2cc(F)cc(F)c2)NC(=O)NS(=O)(=O)c2ccccc2F)cc1 (racemic) [Example 84, (rac)-N-((2-(3,5-difluorophenyl)-1-(1-(4-methoxyphenyl)-1H-imidazol-2-yl)ethyl)carbamoyl)-2-fluorobenzenesulfonamide]	100 to 1000	690	> 100000
COc1ccc(-c2c(C(Cc3ccccc3)NC(=O)NS(=O)(=O)c3ccccc3C)nnn2C)cc1 (racemic) [Example 87, (rac)-N-((1-(5-(4-methoxyphenyl)-1-methyl-1H-1,2,3-triazol-4-yl)-2-phenylethyl)carbamoyl)-2-methylbenzenesulfonamide]	100 to 1000	220	> 100000
O=C(NC(Cc1ccccc1)c1ncccc1-c1ccc2ccncc2c1)NS(=O)(=O)c1ccccc1Cl (stereo in doubt) [Example 108, (S)-2-chloro-N-((1-(3-(isoquinolin-7-yl)pyridin-2-yl)-2-phenylethyl)carbamoyl)benzenesulfonamide, 2 TFA]	> 1000	20000	> 100000
O=C(NC(Cc1cc(F)cc(F)c1)c1ncccc1Br)NS(=O)(=O)c1ccccc1Cl (stereo in doubt) [Example 113, (S)-N-((1-(3-bromopyridin-2-yl)-2-(3,5-difluorophenyl)ethyl)carbamoyl)-2-chlorobenzenesulfonamide, TFA]	> 1000	–	> 100000
COc1ccc(-c2cccnc2C(Cc2cc(F)cc(F)c2)NC(=O)NS(=O)(=O)c2ccccc2Cl)cc1 (stereo in doubt) [Example 114, (S)-2-chloro-N-((2-(3,5-difluorophenyl)-1-(3-(4-methoxyphenyl)pyridin-2-yl)ethyl)carbamoyl)benzenesulfonamide, TFA]	> 1000	34400	> 100000
COc1ccc(-n2ccnc2[C@H](Cc2ccccc2)NC(=O)NS(=O)(=O)c2ccccc2C)cc1 [Example 1, (S)-N-((1-(1-(4-methoxyphenyl)-1H-imidazol-2-yl)-2-phenylethyl)carbamoyl)-2-methylbenzene-sulfonamide]	< 100	–	> 100000
COC(=O)Nc1ccc(-n2ccnc2[C@H](Cc2ccccc2)NC(=O)NS(=O)(=O)c2ccccc2C)cc1 [Example 2, (S)-methyl (4-(2-(2-phenyl-1-(3-(o-tolylsulfonyl)ureido)ethyl)-1H-imidazol-1-yl)phenyl)carbamate]	< 100	–	> 100000
COC(=O)Nc1ccc(-n2ccnc2[C@H](Cc2ccccc2)NC(=O)NS(=O)(=O)c2cccc3ccccc23)cc1 [Example 3, (S)-methyl (4-(2-(1-(3-(naphthalen-1-ylsulfonyl)ureido)-2-phenylethyl)-1H-imidazol-1-yl)phenyl)carbamate]	100 to 1000	100	> 100000
Cc1ccccc1S(=O)(=O)NC(=O)N[C@@H](Cc1ccccc1)c1nccn1-c1cccc(-n2cccc2)c1 [Example 4, (S)-N-((1-(1-(3-(1H-pyrrol-1-yl)phenyl)-1H-imidazol-2-yl)-2-phenylethyl)carbamoyl)-2-methyl-benzenesulfonamide]	> 1000	–	> 100000
Cc1ccccc1S(=O)(=O)NC(=O)N[C@@H](Cc1ccccc1)c1nccn1-c1ccc(F)cc1 [Example 5, (S)-N-((1-(1-(4-fluorophenyl)-1H-imidazol-2-yl)-2-phenylethyl)carbamoyl)-2-methylbenzenesulfonamide]	100 to 1000	–	> 100000
COc1ccc(-n2ccnc2[C@H](Cc2ccccc2)NC(=O)NS(=O)(=O)c2ccccc2Cl)cc1 [Example 6, (S)-2-chloro-N-((1-(1-(4-methoxyphenyl)-1H-imidazol-2-yl)-2-phenylethyl)carbamoyl)benzenesulfonamide]	< 100	50	> 100000
CCOc1ccc(-n2ccnc2[C@H](Cc2ccccc2)NC(=O)NS(=O)(=O)c2ccccc2C)cc1 [Example 7, (S)-N-((1-(1-(4-ethoxyphenyl)-1H-imidazol-2-yl)-2-phenylethyl)carbamoyl)-2-methylbenzenesulfonamide]	< 100	–	> 100000
COc1ccc(-n2ccnc2[C@H](Cc2ccccc2)NC(=O)NS(=O)(=O)c2ccccc2C)c(C)c1 [Example 8, (S)-N-((1-(1-(4-methoxy-2-methylphenyl)-1H-imidazol-2-yl)-2-phenylethyl)carbamoyl)-2-methylbenzenesulfonamide]	100 to 1000	–	> 100000
COc1cccc(-n2ccnc2[C@H](Cc2ccccc2)NC(=O)NS(=O)(=O)c2ccccc2C)c1 [Example 9, (S)-N-((1-(1-(3-methoxyphenyl)-1H-imidazol-2-yl)-2-phenylethyl)carbamoyl)-2-methylbenzenesulfonamide]	< 100	50	> 100000
COc1ccc(-n2ccnc2[C@H](Cc2ccccc2)NC(=O)NS(=O)(=O)c2ccccc2C)cc1OC [Example 10, (S)-N-((1-(1-(3,4-dimethoxyphenyl)-1H-imidazol-2-yl)-2-phenylethyl)carbamoyl)-2-methylbenzenesulfonamide]	< 100	–	> 100000
Cc1ccccc1S(=O)(=O)NC(=O)N[C@@H](Cc1ccccc1)c1nccn1-c1ccc(OC(F)(F)F)cc1 [Example 11, (S)-2-methyl-N-((2-phenyl-1-(1-(4-(trifluoromethoxy)phenyl)-1H-imidazol-2-yl)ethyl)carbamoyl)benzenesulfonamide]	< 100	–	59000
Cc1ccccc1S(=O)(=O)NC(=O)N[C@@H](Cc1ccccc1)c1nccn1-c1cccc(Cl)c1 [Example 12, (S)-N-((1-(1-(3-chlorophenyl)-1H-imidazol-2-yl)-2-phenylethyl)carbamoyl)-2-methylbenzenesulfonamide]	< 100	50	> 100000
Cc1ccc(-n2ccnc2[C@H](Cc2ccccc2)NC(=O)NS(=O)(=O)c2ccccc2C)cc1 [Example 13, (S)-2-methyl-N-((2-phenyl-1-(1-(p-tolyl)-1H-imidazol-2-yl)ethyl)carbamoyl)benzenesulfonamide]	< 100	–	> 100000
Cc1ccccc1S(=O)(=O)NC(=O)N[C@@H](Cc1ccccc1)c1nccn1-c1ccc(Cl)cc1 [Example 14, (S)-N-((1-(1-(4-chlorophenyl)-1H-imidazol-2-yl)-2-phenylethyl)carbamoyl)-2-methylbenzenesulfonamide]	100 to 1000	–	> 100000
Cc1ccccc1S(=O)(=O)NC(=O)N[C@@H](Cc1ccccc1)c1nccn1-c1ccc(Br)cc1 [Example 15, (S)-N-((1-(1-(4-bromophenyl)-1H-imidazol-2-yl)-2-phenylethyl)carbamoyl)-2-methylbenzenesulfonamide]	100 to 1000	190	> 100000
COc1ccccc1-n1ccnc1[C@H](Cc1ccccc1)NC(=O)NS(=O)(=O)c1ccccc1C [Example 16, (S)-N-((1-(1-(2-methoxyphenyl)-1H-imidazol-2-yl)-2-phenylethyl)carbamoyl)-2-methylbenzenesulfonamide]	> 1000	–	> 100000
C=CCOc1cccc(-n2ccnc2[C@H](Cc2ccccc2)NC(=O)NS(=O)(=O)c2ccccc2C)c1 [Example 17, (S)-N-((1-(1-(3-(allyloxy)phenyl)-1H-imidazol-2-yl)-2-phenylethyl)carbamoyl)-2-methylbenzenesulfonamide]	100 to 1000	–	> 33000
Cc1ccccc1S(=O)(=O)NC(=O)N[C@@H](Cc1ccccc1)c1nccn1-c1ccc2c(c1)CCO2 [Example 18, (S)-N-((1-(1-(2,3-dihydrobenzofuran-5-yl)-1H-imidazol-2-yl)-2-phenylethyl)carbamoyl)-2-methylbenzenesulfonamide]	< 100	10	> 100000
Cc1ccccc1S(=O)(=O)NC(=O)N[C@@H](Cc1ccccc1)c1nccn1-c1cccc(OC(F)(F)F)c1 [Example 19, (S)-2-methyl-N-((2-phenyl-1-(1-(3-(trifluoromethoxy)phenyl)-1H-imidazol-2-yl)ethyl)carbamoyl)benzenesulfonamide]	100 to 1000	–	> 33000
Cc1ccccc1S(=O)(=O)NC(=O)N[C@@H](Cc1ccccc1)c1nccn1-c1cccc(Br)c1 [Example 20, (S)-N-((1-(1-(3-bromophenyl)-1H-imidazol-2-yl)-2-phenylethyl)carbamoyl)-2-methylbenzenesulfonamide]	< 100	–	> 33000
Cc1ccccc1S(=O)(=O)NC(=O)N[C@@H](Cc1ccccc1)c1nccn1-c1ccc(OC(C)C)cc1 [Example 21, (S)-N-((1-(1-(4-isopropoxyphenyl)-1H-imidazol-2-yl)-2-phenylethyl)carbamoyl)-2-methylbenzenesulfonamide]	< 100	50	> 100000
Cc1ccccc1S(=O)(=O)NC(=O)N[C@@H](Cc1ccccc1)c1nccn1-c1ccc2c(c1)OCCO2 [Example 22]	100 to 1000	–	> 100000
Cc1cccc(-n2ccnc2[C@H](Cc2ccccc2)NC(=O)NS(=O)(=O)c2ccccc2C)c1 [Example 23, (S)-2-methyl-N-((2-phenyl-1-(1-(m-tolyl)-1H-imidazol-2-yl)ethyl)carbamoyl)benzenesulfonamide]	< 100	–	> 100000
